Data taken from patent US8247538B2, “Preparation method of radioisotope labeling compound using carbon nanotube” (Korea Atomic Energy Research Institute, priority 2006, dated 2012).

Assay: In vivo dynamic kinetics, gamma camera imaging after intravenous injection
Design: species or system New Zealand White male rabbits
Settings: rabbits, 100 μCi/0.1 ml into left ear vein
Protocol: The ^99mTc-2,6-diisopropylacetanilidoiminodiacetic acid prepared in Example 1 was assayed for in vivo dynamic kinetics as follows.
After 6-week-old New Zealand White male rabbits (2887.6±101.5 g, n=3) were anesthetized with ketamine and xylazine, the radioactive compound of Example 1 was injected at a dose of 100 μCi/0.1 ml into the left ear vein of each of the rabbits. All of the rabbits were placed in a pronating posture. Moving pictures were taken for 30 min of each of the rabbits using a gamma camera fitted with a low energy, multipurpose collimator while 16 still pictures were also taken at predetermined time intervals. The image analyzer was set to 140 KeV with a 20% energy window. Image data were analyzed under the dynamic procedure of a Microdelta system (Simens, USA). The static images were taken at 1.52, 3.45, 5.37, 7.30, 9.22, 11.15, 13.07, 15.00, 16.52, 18.45, 20.37, 22.30, 24.22, 26.15, 28.07 and 30 min after the injection, and the results are given in FIG. 3.

Substance: ^99mTc-2,6-diisopropylacetanilidoiminodiacetic acid [Example 1]
- in vivo distribution seen in gamma camera images (FIG. 3) (images 1.52-30 min after injection): detected prominently in the hepatobiliary system, with the highest concentration at the liver
- contrast ratio between images taken of the liver and of other organs, compared with conventional contrast media for imaging the hepatobiliary system (imaging for 30 min): higher
